{
  "source": "patent US20220389500A1",
  "about": "“PURIFYING AND POLYMERIZING 3'-BLOCKED NUCLEOTIDES” (ILLUMINA, INC., priority 2021, published 2022)",
  "molecules": {"B1": {"name": "NNNNNNNNNNNNNNNNNNNN CGGCCATATAACTGGTAGCTTTTTTAAGCTACC AGTT AT ATG GCC G (nucleic acid)", "DNA": "NNNNNNNNNNNNNNNNNNNNCGGCCATATAACTGGTAGCTTTTTTAAGCTACCAGTTATATGGCCG", "modifications": "hairpin template with 20 degenerate bases, chemistry not given here"}},
  "type_in_all_cases": "biochemical",
  "key": {"3′-OH nucleotides [1]": {"test_system": "3′-OH nucleotides", "experiment": "Purification (polishing) of heated 3′-blocked nucleotides with Klenow polymerase and different templates, then 2×151 cycle sequencing on MINISEQ (FIG. 8)", "conditions": "Klenow polymerase, 30 minutes at 37° C., nucleotides heated 5 hours at 55° C.", "description": "FIG. 8 is a plot of phasing and prephasing during polymerization of 3′-blocked nucleotides that were purified using different conditions. More specifically, an aqueous solution of 3′-blocked nucleotides blocked with azidomethyl groups was heated for 5 hours at 55° C. so as to simulate nucleotide stress conditions and convert a portion of the 3′-blocked nucleotides to 3′-OH nucleotides. The resulting aqueous mixture of 3′-blocked nucleotides and 3′-OH nucleotides was purified for 30 minutes at 37° C. in a manner such as described with reference to FIGS. 1A-1B and 3, using the Klenow polymerase and different conditions, e.g., different templates, and different concentrations of templates, such as described further below. The purified 3′-blocked nucleotides then were used in a sequencing reaction, using 2×151 cycle runs on the MINISEQ® sequencing-by-synthesis instrument (Ilumina, Inc., San Diego Calif.) using the PhiX library as templates. The purified nucleotides behaved similarly in the two sequencing reads (R1 and R2). The accumulated prephasing over 150 cycles of read 1 (R1 C150% prephasing weight) and the accumulated phasing over 150 cycles of read 1 (R1 C150% phasing weight) after 3′-blocked nucleotide polymerization was measured for the purified 3′-blocked nucleotides, as well as for heated and unpurified 3′-blocked nucleotides and for unheated 3′-blocked nucleotides.\nThe effect of concentration of a first example template was determined. More specifically, the next data points to the right (“50 nM”) correspond to polymerization of 3′-blocked nucleotides that had been heated as indicated above and were purified using 50 nM of a 20N template of sequence 5′-NNNNNNNNNNNNNNNNNNNNCGGCCATATAACTGGTAGCTT-3′ (SEQ ID NO: 5), whereN are degenerated bases, combined in equimolar amount with a primer oligonucleotide sequence AAGCTACCAGTTATATGGCCG (SEQ ID NO: 6). […] From a comparison of the data points corresponding to different concentrations of the 20N template, it may be understood that with increased concentration of 20N template, prephasing approached a similar prephasing as for the unheated (“std”) 3′-blocked nucleotides.\nDifferent templates were used to determine their effect on phasing and prephasing. More specifically, the next data points to the right (“4N”) correspond to polymerization of 3′-blocked nucleotides that had been heated as indicated above and were purified using 200 nM of a 4N template of sequence 5′-NNN NCGGC CAT ATA ACT GGT AGCTT-3′ (SEQ ID NO: 7) where N are degenerated bases, combined in equimolar amount with primer oligonucleotide sequence AAGCTACCAGTTATATGGCCG (SEQ ID NO: 6). […] The next data points to the right (“6N”) correspond to polymerization of 3′-blocked nucleotides that had been heated as indicated above and were purified using 200 nM of a 6N template of sequence 5′-[…]-3′ (SEQ ID NO: 8), combined in equimolar amount with primer oligonucleotide sequence AAGCTACCAGTTATATGGCCG (SEQ ID NO: 6).\nThe next data points to the right correspond to polymerization of 3′-blocked nucleotides that had been heated as indicated above and were purified using 200 nM of a mixture of 4 hairpin templates, each template corresponding to one base, of respective sequences GGGGGGGGGGGGCGGCCATATAACTGGTCACTCCAGTTATATGGCCG (hairpin G) (SEQ ID NO: 9), TTTTTTTTTTTTCGGCCATAT AACTGG TCACTCCAGTTATATGGCCG (hairpin T) (SEQ ID NO: 10), CCCCCCCCCCCCCGGCCATAT AACTGG TCACTCCAGTTATATGGCCG (hairpin C) (SEQ ID NO: 11), AAAAAAAAAAAACGGCCATATAACTGGTCACTCCAGTTATATGGCCG (hairpin A) (SEQ ID NO: 12). The hairpin templates were added to the reaction at the same concentration to reach a final concentration of 200 nM of DNA. […]"}, "3′-OH nucleotides [2]": {"test_system": "3′-OH nucleotides", "experiment": "Purification of heated 3′-blocked nucleotides with different polymerases and temperatures, then 2×26 cycle sequencing on MINISEQ (FIG. 9)", "conditions": "30 minutes, hp template with 20 degenerated bases, nucleotides heated 5 hours at 55° C.", "description": "FIG. 9 is a plot of phasing and prephasing during polymerization of 3′-blocked nucleotides that were purified to remove 3′-OH nucleotides using different polymerases and different temperatures. More specifically, similarly as for Example 1, an aqueous solution of 3′-blocked nucleotides blocked with azidomethyl groups was heated for 5 hours at 55° C. so as to convert a portion of the 3′-blocked nucleotides to 3′-OH nucleotides. The resulting aqueous mixture of 3′-blocked nucleotides and 3′-OH nucleotides was purified for 30 minutes in a manner such as described with reference to FIGS. 1A-1B and 3, using an hp oligomer template with 20 degenerated bases (meaning that at each position, one of the four bases could be incorporated; since this is random, each oligomer should have a different sequence) and different polymerases and different temperatures such as described further below. The purified 3′-blocked nucleotides then were polymerized using 2×26 cycle runs on the MINISEQ® sequencing-by-synthesis instrument (Illumina, Inc., San Diego Calif.) using the PhiX library as templates. The slope adjusted prephasing and phasing were measured for the purified 3′-blocked nucleotides, as well as for heated and unpurified 3′-blocked nucleotides and for unheated 3′-blocked nucleotides.\nDifferent polymerases were used at different temperatures to determine their effect on phasing and prephasing. More specifically, the next data points to the right (“Vent polishing 60 C”) correspond to polymerization of 3′-blocked nucleotides that had been heated as indicated above and were purified using the Deep Vent polymerase at 60° C. […] From a comparison of performance of the different polymerases, it may be understood that using the Deep Vent polymerase at 60° C. provided similar phasing and prephasing as for the lower baseline “no stress” in which the 3′-blocked nucleotides were not heated. Additionally, it may be understood that using the Taq polymerase at the experimental temperatures provided even less prephasing than for the lower baseline “no stress” in which the 3′-blocked nucleotides were not heated. Accordingly, it may be understood that the Taq polymerase removed from solution not only the 3′-OH nucleotides that were generated using heating, but also at least some of the 3′-OH nucleotides that were present even without heating. Under the particular experimental conditions in this example, the Taq polymerase appeared to provide better performance than Deep Vent, and neither Deep Vent or Taq appeared to detrimentally influence phasing."}, "3′-OH nucleotides [3]": {"test_system": "3′-OH nucleotides", "experiment": "Purification with Taq polymerase at different temperatures and nucleotide concentrations, then 2×26 cycle sequencing on MISEQ (FIG. 11)", "conditions": "30 minutes, 0.5 mM or 1 mM nucleotides, control about 0.1%", "description": "FIG. 11 is a plot of prephasing during polymerization of 3′-blocked nucleotides that were purified to remove 3′-OH nucleotides using different temperatures and concentrations of 3′-blocked nucleotides. Similarly as for Example 1, an aqueous solution of 3′-blocked nucleotides blocked with azidomethyl groups was heated for 5 hours at 55° C. so as to convert a portion of the 3′-blocked nucleotides to 3′-OH nucleotides. The resulting aqueous mixture of 3′-blocked nucleotides and 3′-OH nucleotides was purified for 30 minutes in a manner such as described with reference to FIGS. 1A-1B and 3, using 10× of an hp oligomer template with 20 degenerated bases (NNNNNNNNNNNNNNNNNNNN CGGCCATATAACTGGTAGCTTTTTTAAGCTACC AGTT AT ATG GCC G (SEQ ID NO. 1)), 10× of the Taq polymerase and either 0.5 mM or 1 mM of the heated 3′-blocked nucleotides, at a variety of temperatures. The purified 3′-blocked nucleotides then were polymerized using 2×26 cycle runs on the MISEQ® sequencing-by-synthesis instrument (Illumina, Inc., San Diego Calif.) using the PhiX library as templates. The normalized prephasing was measured for the purified 3′-blocked nucleotides, as well as for heated and unpurified Y-blocked nucleotides and for unheated Y-blocked nucleotides. […]"}},
  "data": [
    {"molecule": "5′-NNN NCGGC CAT ATA ACT GGT AGCTT-3′ (DNA NNNNCGGCCATATAACTGGTAGCTT; degenerate-base DNA template for purifying nucleotides, chemistry not given here) [4N template]", "values": [
      {"measurement": "R1 C150 phasing weight", "setting": "3′-OH nucleotides [1]; 200 nM template", "result": "about 18.5%"},
      {"measurement": "R1 C150 prephasing weight", "setting": "3′-OH nucleotides [1]; 200 nM template", "result": "about 21%"}
    ]},
    {"molecule": "5′-NNNNNNNNNNNNNNNNNNNNCGGCCATATAACTGGTAGCTT-3′ [20N template]", "values": [
      {"measurement": "R1 C150 phasing weight", "setting": "3′-OH nucleotides [1]; 50 nM template", "result": "about 12%"},
      {"measurement": "R1 C150 prephasing weight", "setting": "3′-OH nucleotides [1]; 50 nM template", "result": "about 24%"},
      {"measurement": "R1 C150 phasing weight", "setting": "3′-OH nucleotides [1]; 200 nM template", "result": "about 18.5%"},
      {"measurement": "R1 C150 prephasing weight", "setting": "3′-OH nucleotides [1]; 200 nM template", "result": "about 16.5%"},
      {"measurement": "R1 C150 phasing weight", "setting": "3′-OH nucleotides [1]; 300 nM template", "result": "about 19%"},
      {"measurement": "R1 C150 prephasing weight", "setting": "3′-OH nucleotides [1]; 300 nM template", "result": "about 13%"},
      {"measurement": "R1 C150 phasing weight", "setting": "3′-OH nucleotides [1]; 500 nM template", "result": "about 23%"},
      {"measurement": "R1 C150 prephasing weight", "setting": "3′-OH nucleotides [1]; 500 nM template", "result": "about 17%"}
    ]},
    {"molecule": "5′-NNNNNNCGGCCATATAACTGGTAGCTT-3′ (degenerate-base DNA template, chemistry not given here) [6N template]", "values": [
      {"measurement": "R1 C150 phasing weight", "setting": "3′-OH nucleotides [1]; 200 nM template", "result": "about 15%"},
      {"measurement": "R1 C150 prephasing weight", "setting": "3′-OH nucleotides [1]; 200 nM template", "result": "about 17.5%"}
    ]},
    {"molecule": "Taq polymerase: Thermus aquaticus DNA polymerase I, thermostable polishing polymerase", "values": [
      {"measurement": "normalized phasing", "setting": "3′-OH nucleotides [2]; purified at 37° C.", "result": "about 0.13%"},
      {"measurement": "normalized prephasing", "setting": "3′-OH nucleotides [2]; purified at 37° C.", "result": "about 0.09%"},
      {"measurement": "normalized phasing", "setting": "3′-OH nucleotides [2]; purified at 45° C.", "result": "about 0.12%"},
      {"measurement": "normalized prephasing", "setting": "3′-OH nucleotides [2]; purified at 45° C.", "result": "about 0.08%"},
      {"measurement": "normalized phasing", "setting": "3′-OH nucleotides [2]; purified at 60° C.", "result": "about 0.12%"},
      {"measurement": "normalized prephasing", "setting": "3′-OH nucleotides [2]; purified at 60° C.", "result": "about 0.09%"},
      {"measurement": "normalized prephasing", "setting": "3′-OH nucleotides [3]; purified at 53° C.", "result": "significantly lower than the control"},
      {"measurement": "normalized prephasing", "setting": "3′-OH nucleotides [3]; purified at 60° C.", "result": "significantly lower than the control"}
    ]},
    {"molecule": "B1", "values": [
      {"measurement": "R1 C150 phasing weight", "setting": "3′-OH nucleotides [1]; 200 nM template", "result": "about 12%"},
      {"measurement": "R1 C150 prephasing weight", "setting": "3′-OH nucleotides [1]; 200 nM template", "result": "about 16%"}
    ]}
  ]
}
